Laboratory results: patent publication US20240408071A1, “NOVEL COMBINATION OF SEROTONIN RECEPTOR (5-HTR2B) ANTAGONIST AND AN IMMUNOMODULATOR AND CHEMOTHERAPEUTIC DRUGS FOR INHIBITION OF CANCER” (NATIONAL CENTRE FOR CELL SCIENCE, priority 2021, published 2024)

Legend:
MC38 cells = test: MTT cell viability assay; assay type: cell-based, mouse; settings: graded dose; reduced serum media; 48 hours of stimulation
Procedure: FIG. 6 depicts that 5-HTR2B signalling in colon cancer affects cell proliferation and viability: Colon cancer MC38 cells were treated with serotonin (100 μM), 5-HTR2B agonist (BW-723C86; 50 μM), or 5-HTR2B antagonist (SB-215505; 50 μM) for 48 hours, and cell cycle analysis was performed by propidium iodide staining using flow cytometry. MC38 cells were also treated with a graded dose of 5-HTR2B agonist (BW-723C86) or serotonin. MTT assay was performed to measure cell viability. (A) After treatment with 5-HTR2B agonist BW-723C86, serotonin, or 5-HTR2B antagonist SB-215505, the relative cell cycle analysis is shown. (B) Relative cell viability data of MC38 cells following treatment of graded doses of 5-HTR2B agonist BW-723C86 or serotonin are shown. The data shown are representative of one of the three independent experiments. (C) MC38 tumor sections from the control tumor and 5-HTR2B antagonist treated tumor were stained for CD31 and the number of CD31^+ micro-blood vessels/mm^2 of tissue sections was counted and plotted to observe angiogenesis. Error bar represents ±standard error of the mean (SEM).
MC38 cells were cultured at a density of 0.5×10^4 cells/well in 96 well plates (flat bottom) and were allowed to adhere for 24 hours. […] Then, MTT crystals were dissolved with DMSO, and the reading was taken at 590 nm in an ELISA reader (Thermofisher). […]

[1] = compared with other 5-HTR2B antagonists; cited from earlier work
[2] = test system: OVA-specific CD8 and CD4 T cells in MC38-cOVA tumor; test: OVA-specific T cell response in MC38-cOVA tumor-bearing mice (CFSE, tetramer flow cytometry); assay type: in vivo
Procedure: FIG. 11 depicts the effect of 5-HTR antagonists on the antigen-specific CTL response MC38 tumor model in mice: (A) Representative experimental plan of the adoptive transfer experiment where NRG mice. In brief, NRG mice were inoculated with MC38 on one flank and B16F10 cells on the other. These mice received total lymph node cells from naïve C57BL/6J mice or MC38 tumor-bearing control or RS-127445 treated mice. (B) Tumor volume data from the above-described experiment was measured and plotted (C) Immunocytochemistry data showing expression of H2-Kb-[…]^+ (red) on MC38 cells transfected with pCL-neo-OVA plasmid on the right side and MC38 cells without transfection. DAPI is used as a counterstain. (D-E) C7BL/6J mice were inoculated with an MC38-ova cell line and treated with RS-127445 or left untreated. After 10 days of such treatment, Total lymph node cells were harvested tagged with CFSE, and cultured in the presence of ovalbumin protein (50 μg/ml) for 5 days. After 5 days cells were checked for CFSE expression by flow cytometry to check proliferation. Here is the data (D) showing the CFSE in CD8^+ cells. The statistical data of the total percentage of CFSE^− CD8 T cells corresponding with the percentage of proliferated CD8 T cells were plotted. (F-G) Flow cytometric data and statistical analysis of the percentage of intra-tumoral H-2Kb^− […] tetramer^+ CD8 population from the control and RS-127445 treated MC38-ova tumor-bearing mice. (H-I) Flow cytometric data and statistical analysis of the percentage of intra-tumoral H-2Kb^− […] tetramer^+CD69^+ activated CD8 population from the control and RS-127445 treated MC38 tumor-bearing mice. (J-K) Flow cytometric data and statistical analysis of the percentage of intra-tumoral H-2K^b-[…] tetramer^+IFN-γ^+Granzyme B^+CD8 T cell population from the control and RS-127445 treated MC38 tumor-bearing mice. (D-E) Histogram overlay and statistical data comparison showing relative MFI of granzyme B on IFN-γ^+ OT-I-tetramer^+ CD8a^+ T cells from MC38-ova tumor of control and RS-127445 treated mice. The data shown are representative of one of the two independent experiments. All the statistical analysis was performed using either Student's t-test or two-way ANOVA using Sidak's multiple comparison test. *P<0.05; **P<0.01; […]; ****P<0.0001 Error bar represents mean±standard error of means (SEM).
FIG. 12 depicts that 5-HTR2B signalling affects the antigen-specific proliferation of CD4 T cells: (A-B) Total CD4 T cells were harvested from the lymph node of OT-II mice and they were tagged with CFSE and cultured in vitro in the presence or absence of OT-II peptide (Ova323-339), IL-2, 5-HTR2B agonist BW-723C86 (10 μM), Serotonin (20 μM) or 5-HTR2B antagonist RS-127445 (15 μM) for 5 days. After 5 days the proliferation of OT-II tetramer^+ CD4 T cells was measured and plotted as histogram overlay (A) or as statistical data (B). (C-D) Flow cytometric data and statistical analysis of the percentage of intra-tumoral OT-II-tetramer^+ IFNγ^+ CD4 T cell population from the control and RS-127445 treated MC38-ova tumor-bearing mice. (E-F) Flow cytometric data and statistical analysis of the percentage of intra-tumoral OT-II-tetramer^+ IFNγ^+ CD4 T cell population from the control and RS-127445 treated MC38-ova tumor-bearing mice. (G) Histogram overlay and statistical data comparison showing relative MFI of IL-10 on OT-II-tetramer^+ CD4^+ T cells from MC38-ova tumor of control and RS-127445 treated mice. All the statistical analysis was performed using either Student's ‘t’ test or two-way ANOVA using Sidak's multiple comparison test. *P<0.05; **P<0.01; […]; ****P<0.0001 Error bar represents mean±standard error of means (SEM).
A simple adoptive transfer experiment was performed to study the enhancement of CTL response in general or antigen-specific. […]

| Structure (SMILES) | viability of MC38 cells (MC38 cells) | bioavailability [1] | Ova-specific IFNγ+ CD4 T cells in the tumor ([2]; MC38-cOVA tumor, OT-II tetramer (FIG. 12C-D)) | Ova-specific IL-10+ CD4 T cells in the tumor ([2]; MC38-cOVA tumor, OT-II tetramer (FIG. 12E-G)) | CD69+ activated OVA-specific CTLs percentage in the tumor ([2]; OT-I tetramer (FIG. 11H-I)) | IFNγ+ granzyme B+ effector OVA-specific CTLs percentage in the tumor ([2]; OT-I tetramer (FIG. 11J-M)) | overall percentage of OVA-specific CD8 T cell in the tumor ([2]; OT-I tetramer, MC38-ova tumor (FIG. 11F-G)) | proliferation of CD8 T cells in the presence of OVA in vitro ([2]; cells from treated MC38-cOVA tumor-bearing mice, ovalbumin 50 μg/ml, 5 days, CFSE (FIG. 11D-E)) |
| --- | --- | --- | --- | --- | --- | --- | --- | --- |
| CC(N)Cc1c[nH]c2ccc(OCc3cccs3)cc12 (centres unmarked) [BW-723C86] | enhanced the viability of MC38 cells | – | – | – | – | – | – | – |
| CC(C)c1cc(-c2ccc(F)c3ccccc23)nc(N)n1 [RS-127445] | – | higher bioavailability | increased | reduced | enhanced | enhanced | did not enhance the overall percentage | proliferated at a better rate |
